Data on 2 compounds can be found in PMC11432795, “Mutagenesis of the Peptide Inhibitor of ASIC3 Channel Introduces Binding to Thumb Domain of ASIC1a but Reduces Analgesic Activity” (Marine Drugs, 2024).

One experiment concerns rat ASIC1b channel. Kind of experiment: Two-electrode voltage clamp, rat ASIC1b in X. laevis oocytes. It is filed as cell-based. As to conditions: 30 s preapplication, activated at pH 5.5. On the procedure: A small portion of the ovary was isolated from frogs under anesthesia induced by a 0.17% solution of procaine methanesulphonate (MS222) (Sigma), followed by treatment with collagenase (1 mg/mL) at room temperature for 2 h. Oocytes at stages IV and V, devoid of follicular membranes, were transferred to ND-96 medium (containing 96 mM NaCl, 5 mM HEPES, 2 mM KCl, 1.8 mM CaCl2, 1 mM MgCl2, pH 7.4). mRNA synthesis was performed from pcDNA3.1 vectors (Invitrogen, Carlsbad, CA, USA) containing the rat ASIC3 gene, as well as pCI vectors containing genes for rat ASIC1a, its mutant analogues, and ASIC1b. mRNA (2.5–10 ng) was then injected into the oocytes. For the ASIC1a/3 heteromeric channels, the mRNA encoding the ASIC1a and ASIC3 subunits were injected in a 1:5 ratio, respectively. Subsequently, the oocytes were incubated for 2–3 days at a temperature of 17–19 °C in ND96 medium supplemented with gentamicin and streptomycin (20 µg/mL each).
Whole-cell electrophysiological recordings of ASIC channels were conducted using a two-electrode voltage-clamp setup. Microelectrodes were filled with 3 M KCl. Recordings from oocytes were carried out at a holding potential of −50 mV, with data filtered at 10 Hz and sampled at a rate of 100 Hz using an L780M ADC (LCard, Moscow, Russia). […]
A general note: In two-electrode clamp one electrode senses voltage and the other passes current.

A short description of experiment [1]: Acetic acid-induced writhing (AAW pain model). It counts as in vivo, ICR mice. As to conditions: for reduction of number of writhes, significance by dose: 0.002, 0.02, 0.2 mg/kg i.m. On the procedure:
In both the AAW and CFA-induced hyperalgesia, Ugr9-1 and A23K peptides were administered intramuscularly one hour before the experiments at doses of 0.002, 0.02, and 0.2 mg/kg. In the AAW test, analgesic efficacy was evaluated by assessing the reduction in the number of involuntary writhing episodes induced by intraperitoneal injection of a 0.6% acetic acid solution.
(§1) Adult male ICR mice (Animal Breeding Facility Branch of Shemyakin–Ovchinnikov Institute of Bioorganic Chemistry, Russian Academy of Sciences, Pushchino, Russia), weighing 20–25 g, were utilized. Animals were housed under controlled conditions, with a room temperature of 23 ± 2 °C, a 12 h light–dark cycle, and ad libitum access to food and water. Test substances were dissolved in saline. Peptides (Ugr9-1 and A23K at doses of 0.002, 0.02, and 0.2 mg/kg) and saline (for the control group) were administered intramuscularly 60 min prior to testing.
(§2) The abdominal constriction test of visceral pain (acetic acid-induced writhing pain model) and hyperalgesia induced by complete Freund’s adjuvant (CFA-induced inflammatory pain model) were performed as previously described.
(§3) Statistical analysis was conducted using analysis of variance (ANOVA) with post hoc Tukey’s test, and data are presented as mean ± standard deviation (S.D.).
For orientation: An intraperitoneal irritant provokes the stretching counted in writhing tests.

Experiment [2] can be described thus: CFA-induced hyperalgesia, von Frey test. It counts as in vivo, ICR mice. As to conditions: for increase in paw withdrawal threshold (PWT), significance by dose: 0.002, 0.02, 0.2 mg/kg i.m. Here is the method: (§4) In the CFA-induced hyperalgesia test, where CFA administration induces excess sensitivity to mechanical and thermal stimuli, the analgesic effects of peptides were assessed using von Frey filaments of varying forces (von Frey test) and a hot plate apparatus (hot plate test).
as §1, §2
(§5) For the von Frey filaments test, mice were positioned in a plastic chamber with access to the inflamed hind paw surface and an electronic von Frey filament (BIO-EVF, Bioseb, Vitrolles, France) was applied with gradually increasing pressure until withdrawal. Data, expressed as the strength of the applied mechanical stimulus from three applications, were averaged, with intervals between exposures of at least 1 min.
as §3

A short description of experiment [3]: CFA-induced hyperalgesia, hot plate test. It counts as in vivo, ICR mice. As to conditions: hot plate 53 °C; for prolongation of paw withdrawal time, significance by dose: 0.002, 0.02, 0.2 mg/kg i.m. Here is the method:
as §4, §1, §2, §3
A general note: Thermal pain tests record how soon the animal reacts.

Experiment [4] is described as follows: All pain tests conducted (overall). It is filed as in vivo, ICR mice. As to conditions: i.m. On the procedure:
as §1, §2, §5, §3

In another experiment the test system is human ASIC3 channels. As to conditions: ref [18]; cited from earlier work. An excerpt:
Peptide Ugr9-1 was originally identified as a negative modulator of human ASIC3 channels. […] Combining comparative analysis, molecular modeling techniques, and structural and functional studies, we generated two novel peptide variants derived from Ugr9-1 capable of modulating both ASIC3 and ASIC1a channels.

For experiment [5] the following is noted: cited from earlier work. The source says: Selective ligands targeting specific ASIC isoforms are invaluable for structural and functional investigations. Peptide ligands sourced from various animal venoms have emerged as such tools. […] Bot ... || The 29-amino acid peptide Ugr9a-1, isolated from the venom of the northern sea anemone Urticina grebelnyi, represents a structural class of toxins termed “boundless β-hairpin”. […] While the significant involvement of ASIC3 channels in acid-induced, chronic neuropathic and inflammatory pain has been extensively reported, the role of ASIC1a remains less clear.

Another experiment relates to ASIC3 channels. As to conditions: ref [18],[19],[20]; cited from earlier work. An excerpt: The 29-amino acid peptide Ugr9a-1, isolated from the venom of the northern sea anemone Urticina grebelnyi, represents a structural class of toxins termed “boundless β-hairpin”.
The mark [6] stands for this setting: one hour before testing, 0.6% acetic acid i.p., n = 7.
[7] abbreviates: 0.02 mg/kg i.m., one hour before testing, n = 7.

Positions of bridges follow the written chain, without caps; N, C: chain ends. Residues, ends and D or L forms follow the SMILES beside them.

For the compound `CC[C@H](C)[C@H](N)C(=O)N[C@@H](CO)C(=O)N[C@H](C(=O)N[C@@H](CC(=O)O)C(=O)N1CCC[C@H]1C(=O)N1CCC[C@H]1C(=O)N[C@H]1CSSC[C@@H]2NC(=O)[C@H](CC(N)=O)NC(=O)CNC(=O)[C@H](CO)NC(=O)CNC(=O)[C@H](CC(=O)O)NC(=O)[C@H](CCCNC(=N)N)NC(=O)[C@H](Cc3c[nH]cn3)NC(=O)[C@H](Cc3ccc(O)cc3)NC(=O)[C@H](CSSC[C@@H](C(=O)NCC(=O)N[C@@H](C)C(=O)N[C@H](C(=O)O)C(C)C)NC(=O)CNC(=O)[C@H](Cc3ccc(O)cc3)NC(=O)[C@H](CCCCN)NC(=O)[C@H](CC(=O)O)NC(=O)[C@H](Cc3ccc(O)cc3)NC(=O)[C@H](C(C)C)NC2=O)NC(=O)[C@H](Cc2ccccc2)NC(=O)[C@H](CCCNC(=N)N)NC1=O)[C@@H](C)CC` [A23K] (H-ISIDPPCRFCYHRDGSGNCVYDKYGCGAV-OH; disulfide 7-19, 10-26), the “effect on rat ASIC1b channel at 50 µM” value in the experiment on rat ASIC1b channel is listed as “Lack of effect”. Besides, in experiment [1] (0.02 mg/kg i.m., versus Ugr9-1), the “reduction of writhing, times less effective than Ugr9-1” value was 1.5 times. The “reduction of number of writhes, significance by dose” value in experiment [1] (setting [6]) is given as “significant reduction in writhing episodes only at a dose of 0.02 mg/kg”. Further, the “increase in PWT compared to Ugr9-1” value in experiment [2] (0.02 mg/kg i.m., versus Ugr9-1) is on record as “more than three times less effectively than Ugr9-1”. For the same compound, the “increase in paw withdrawal threshold (PWT), significance by dose” value in experiment [2] (one hour before testing, n = 7) is “significantly increased PWT only at 0.02 mg/kg”. In experiment [3] (one hour before testing, n = 7), the “prolongation of paw withdrawal time, significance by dose” value was “effects only at doses of 0.02 and 0.2 mg/kg”. In addition, in experiment [3] (versus Ugr9-1), the “paw withdrawal time effect compared to Ugr9-1” value is recorded as “two times less effective than Ugr9-1”. In addition, the “analgesic effect compared to the wild-type peptide” value in experiment [4] is given as “significantly less pronounced analgesic effect compared to the wild-type peptide”.
One may read the IC50 as the concentration at which inhibition is half-maximal. Take `CC[C@H](C)[C@H](N)C(=O)N[C@@H](CO)C(=O)N[C@H](C(=O)N[C@@H](CC(=O)O)C(=O)N1CCC[C@H]1C(=O)N1CCC[C@H]1C(=O)N[C@H]1CSSC[C@@H]2NC(=O)[C@H](CC(N)=O)NC(=O)CNC(=O)[C@H](CO)NC(=O)CNC(=O)[C@H](CC(=O)O)NC(=O)[C@H](CCCNC(=N)N)NC(=O)[C@H](Cc3c[nH]cn3)NC(=O)[C@H](Cc3ccc(O)cc3)NC(=O)[C@H](CSSC[C@@H](C(=O)NCC(=O)N[C@@H](C)C(=O)N[C@H](C(=O)O)C(C)C)NC(=O)CNC(=O)[C@H](Cc3ccc(O)cc3)NC(=O)[C@H](C)NC(=O)[C@H](CC(=O)O)NC(=O)[C@H](Cc3ccc(O)cc3)NC(=O)[C@H](C(C)C)NC2=O)NC(=O)[C@H](Cc2ccccc2)NC(=O)[C@H](CCCNC(=N)N)NC1=O)[C@@H](C)CC` [Ugr9-1] (H-ISIDPPCRFCYHRDGSGNCVYDAYGCGAV-OH; disulfide 7-19, 10-26): in experiment [1] (0.02 mg/kg i.m., one hour before testing, 0.6% acetic acid i.p., n = 7), the “inhibition of number of writhes (maximum effect)” value is reported as 30%. Besides, the “reduction of number of writhes, significance by dose” value in experiment [1] (setting [6]) is given as “significantly decreased the number of writhes at all three doses”. Moreover, the “increase in paw withdrawal threshold (maximum effect)” value in experiment [2] (setting [7]) was 270%. The “increase in paw withdrawal threshold (PWT), significance by dose” value in experiment [2] (one hour before testing, n = 7) is listed as “significant increase in paw withdrawal threshold (PWT) at all doses”. Moreover, the “increase in paw withdrawal time (maximum effect)” value in experiment [3] (setting [7]) stood at 106%. In experiment [3] (one hour before testing, n = 7), the “prolongation of paw withdrawal time, significance by dose” value is on record as “significantly prolonged paw withdrawal time at all doses”. In the experiment on human ASIC3 channels, the half-inhibitory concentration (IC50) was 10 µM. For the same compound, the “effect on acid-induced and inflammatory pain” value in experiment [5] (mouse models, ref [18],[19],[20]) is “promising results in mitigating acid-induced and inflammatory pain”. The “effect on acid-induced and CFA-induced inflammatory pain” value in experiment [5] (range of doses, ref [18],[20]) was “attenuates acid-induced and CFA-induced inflammatory pain in mice across a range of doses”. Further, the “modulation of ASIC3 channels” value in the experiment with ASIC3 channels was “selectively modulates ASIC3 channels”.
